Measured values reported in US9982008B2, “Preparation and uses of obeticholic acid” (Intercept Pharmaceuticals, Inc., priority 2012, dated 2018).

Legend:
[1] = Gravimetric Vapor Sorption (GVS); type: physicochemical
Procedure: (§1) Sorption isotherms were obtained using a SMS DVS Intrinsic moisture sorption analyzer, controlled by DVS Intrinsic Control software v 1.0.0.30. The sample temperature was maintained at 25° C. by the instrument controls. The humidity was controlled by mixing streams of dry and wet nitrogen, with a total flow rate of 200 ml·min^−1. The relative humidity was measured by a calibrated Rotronic probe (dynamic range of 1.0-100% RH), located near the sample. The weight change, (mass relaxation) of the sample as a function of % RH (relative humidity) was constantly monitored by the microbalance (accuracy±0.005 mg).
5 to 20 mg of sample was placed in a tared mesh stainless steel basket under ambient conditions. The sample was loaded and unloaded at 40% RH and 25° C. (typical room conditions). A moisture sorption isotherm was performed as outlined below (2 scans giving 1 complete cycle). The standard isotherm was performed at 25° C. at 10% RH intervals over a 0.5-90% RH range. Data analysis was undertaken in Microsoft Excel using DVS Analysis Suite v6.0.0.7. Method Parameters for SMS DVS Intrinsic Experiments are as follows:
The sample was recovered after completion of the isotherm and re-analyzed by XRPD.
as §1, with “SMS Analysis Suite software.” for “DVS Intrinsic Control software v 1.0.0.30.”, “RH” for “RH (relative humidity)”
Typically 5-20 mg of sample was placed in a tared mesh stainless steel basket under ambient conditions. The sample was loaded and unloaded at 40% RH and 25° C. (typical room conditions). A moisture sorption isotherm was performed as outlined below (2 scans giving 1 complete cycle). […]

[2] = Log P determination by potentiometric titration (octanol/ISA water); type: physicochemical; settings: potentiometry
Procedure: Data were collected by potentiometric titration on a Sirius GlpKa instrument using three ratios of octanol: ionic-strength adjusted (ISA) water to generate Log P, Log Pion, and Log D values. The data were refined using Refinement Pro software v1.0. Prediction of Log P values was made using ACD v9 and Syracuse KOWWIN v1.67 software.
Log P was predicted using ACD software then measured by potentiometry. Three titrations were performed at three different octanol/ISA water ratios, giving the difference curve plotted in FIG. 30. The black curve is the pure aqueous pKa titration and the 3 colored curves correspond to the three octanol/ISA water ratios. The shifts in pKa enable determination of Log P.
Log D is the distribution coefficient, representing the combined lipophilicity of all species present at a specific pH. Log P is a compound constant, which corresponds to the partition coefficient of the pure neutral species, while Log Pion is that of the pure ionized species. Log P and Log Pion can be determined from the lipophilicity curve, as the intersection of the Y axis with respectively the tangent at the start of the pH scale (when the molecule is purely in its neutral form) and the tangent at the end of the pH scale (when the molecule is completely ionized).

[3] = rat, in vivo, po, 20 mg/kg
Procedure: The study described below was carried out to evaluate the plasma kinetics after a single oral administration and the efficiency of the intestinal absorption and the pharmacokinetics of solid non-crystalline and crystalline forms of obeticholic acid. The profiles of obeticholic acid plasma concentration vs time, the tmax, Cmax and AUC after administration of obeticholic acid Form 1 (non-crystalline) or Form F were compared (see FIGS. 37-38)
Obeticholic acid Form 1 (non-crystalline) and Form F were administered to rats and in each animal blood was collected at different period of times for at least 3 hours. Six animals were studied for each form of obeticholic acid.
The formulation was prepared as a suspension in water at pH 4. The study model is adult male Sprague Dawley rats about 225 to about 250 g (Harlan Laboratories). Six animals were used per dosage route. The dosage is PO 20 mg/kg/5 mL. The animals were fasted overnight before treatment with the formulation of obeticholic acid. Oral administration was performed by gastric gavage.
On day one animals were be fitted with a cannula implanted in the left jugular vein (SOP VIVO/SAF6), anaesthesia was obtained by Isoflurane. The experiment was started after one day of recovery from surgery. About 500 μL of blood (250 μL of plasma) was taken via cannula in a heparinised syringe (Na Heparin) and collected immediately in microtubes in an ice/water bath. Within 1 hour, samples were centrifuged at 10000×g for 5 minutes at 4° C. Plasma was immediately transferred in microtubes and stored at −20° C. Samples of blood were collected 30 minutes, 1 hour, 1.3 hour, 2 hours, and 3 hour post-dose. Plasma samples were analyzed using the HPLC-ES/MS/MS quantitative method. Pharmacokinetics study was preformed using non-compartmental methods.

[4] = pKa determination by potentiometry (methanol/water, Yasuda-Shedlovsky extrapolation); type: physicochemical; settings: 25° C., potentiometry with methanol as cosolvent, extrapolated to 0% co-solvent (Yasuda-Shedlovsky)
Procedure: pKa determination data were collected on a Sirius GlpKa instrument with a D-PAS attachment. Measurements were made at 25° C. in aqueous solution by UV and in methanol water mixtures by potentiometry. The titration media was ionic-strength adjusted (ISA) with 0.15 M KCl (aq). The values found in the methanol water mixtures were corrected to 0% co-solvent via a Yasuda-Shedlovsky extrapolation. The data were refined using Refinement Pro software v1.0. Prediction of pKa values was made using ACD pKa prediction software v9.
The pKa of obeticholic acid was measured by potentiometry using methanol as a cosolvent (FIG. 27) and extrapolated to 0% co-solvent using a Yasuda-Shedlovsky extrapolation (FIG. 28). The pKa enables determination of the proportion of the neutral and the ionized form of the compound at a given pH.

[5] = 1 week
Procedure: Briefly, the solid was suspended in water at a low pH (HCl 0.1 mol/L) and left to equilibrate at 25° C. for one week under slightly mixing. The saturate solution was filtered and the concentration of the compound in solution measured by HPLC-ES-MS/MS.

| Compound | GVS water uptake / weight change ([1]; 25° C., 0 to 90% RH) [%] | Hygroscopicity (GVS) ([1]; 25° C., 0 to 90% RH, in words) | XRPD analysis after GVS ([1]; sample recovered after isotherm) | Measured LogD7.4 ([2]; octanol/ISA water, pH 7.4) | Measured LogPion ([2]; octanol/ISA water, pure ionized species) | Measured LogP ([2]; three octanol/ISA water ratios) | Cmax, Form 1 compared with Form F [3] | Time of early plasma concentration peak [3] [min] | Time of second plasma concentration peak [3] [h] | Measured pKa [4] | Plasma concentration of tauro conjugate, crystalline form compared with Form 1 [3] | Plasma obeticholic acid concentration after 3 hours relative to Cmax [3] | Time after which Cmax is achieved ([3]; pH 4) [h] | Water solubility [5] [µM] |
| --- | --- | --- | --- | --- | --- | --- | --- | --- | --- | --- | --- | --- | --- | --- |
| obeticholic acid [Form 1] | 3.8 | moderately hygroscopic | still non-crystalline | 2.98 | 1.58 | 5.54 | lower | 30 | 2 | 4.82 | – | – | – | – |
| CC[C@H]1[C@@H](O)[C@@H]2[C@H](CC[C@]3(C)[C@@H]([C@H](C)CCC(=O)O)CC[C@@H]23)[C@@]2(C)CC[C@@H](O)C[C@@H]12 [Form F, obeticholic acid] | – | – | – | – | – | – | – | – | – | – | higher concentration | almost half of the Cmax | 1.5 | 9.1 |
